≈ marks a conversion by molar mass, not a printed value. Where two headings read alike, the source gives them in different places.
Experiments:
Type in all cases: cell-based
[1] = system: VRE-CSUC4 (vancomycin resistant enterococci); experiment: MIC assay, VRE strain CSUC-4; conditions: for MIC: Enterococcus, VRE
Description: (§1) These assays are adapted from NCCLS protocols M7-A4 and M27-A (NCCLS vol 17:9 and vol 17:2) as modified by Sandven, S. Clin. Micro. (1999) 37:12, p.3856-3859. MIC values for Aspergillus fumigatus were determined using NCCLS protocol M38-P.
(§2) All compounds were dissolved in 100% DMSO to a stock concentration of 10 mM and use fresh or stored at −80° C. Stock compounds were kept frozen until needed and used freshly with no more then one freeze-thaw cycle. When used for test purposes, compounds were diluted in the appropriate media depending on the organism being tested.
(§3) For yeast and aspergillus species, seven 1:2 serial dilutions of compound in appropriate media buffered with MOPS at pH 7.0 were prepared such that the final starting test compound concentrations were 50.0 uM for yeast and 50 uM aspergillus species. For bacteria, dilutions were made in growth media used for the particular bacteria being tested.
(§4) Inoculums are made in the same manner as yeast except all dilutions are made in normal saline, with a final dilution of 1:200 and an inoculum of 10 μL. VRE are vancomycin resistant enterococci, BM4147 and UCD-3 represent two different sources of VRE. MRSA are […] resistant Staphylococcus Aureus.

[2] = system: VRE-UL17 (vancomycin resistant enterococci); experiment: MIC assay, VRE strain UL-17; conditions: for MIC: Enterococcus, VRE
Description: as §1, §2, §3, §4

Haemophilus influenzae = experiment: MIC assay, H. influenzae; conditions: HTM, 24 h
Description: as §1, §2, §3, §4

Candida albicans = experiment: MIC assay, yeast C. albicans; conditions: RPMI, 48 h, Alamar Blue
Staphylococcus aureus = experiment: MIC assay, S. aureus; conditions: CAMHB, 16 h
Description: as §1, §2, §3, §4

Moraxella catarrhalis = experiment: MIC assay, M. catarrhalis; conditions: BHI, 16 h
Description: as §1, §2, §3, §4

[3] = system: VRE-UCD3 (vancomycin resistant enterococci); experiment: MIC assay, VRE strain UCD-3; conditions: for MIC: Enterococcus, VRE
Description: as §1, §2, §3, §4

Bacillus cereus = experiment: MIC assay, B. cereus; conditions: CAMHB, 16 h
Description: as §1, §2, §3, §4

Pseudomonas aeruginosa = experiment: MIC assay, P. aeruginosa; conditions: CAMHB, 16 h
Description: as §1, §2, §3, §4

[4] = system: VRE-BM4147 (vancomycin resistant enterococci); experiment: MIC assay, VRE strain BM4147; conditions: for MIC: Enterococcus, VRE
Description: as §1, §2, §3, §4

Streptococcus pneumoniae = experiment: MIC assay, S. pneumoniae; conditions: CAMHB + 5% LHB, 24 h
Description: as §1, §2, §3, §4

| SMILES | MIC Assay VRE Strains: CSUC-4 van25 ([1]; 25 μg/mL Vancomycin - 24 h) | MIC Assay VRE Strains: CSUC-4 van0 ([1]; No vancomycin - 16 h) | MIC Assay VRE Strains: UL-17 van25 ([2]; 25 μg/mL Vancomycin - 24 h) | MIC Assay VRE Strains: UL-17 van0 ([2]; No vancomycin - 16 h) | MIC Assay Other Strains: H influenzae (Haemophilus influenzae) | MIC Assay C. Albicans (Candida albicans) | MIC Assay Other Strains: S. aureus (Staphylococcus aureus) | MIC Assay Other Strains: M. catarrhalis (Moraxella catarrhalis) | MIC Assay VRE Strains: UCD-3 van25 ([3]; 25 μg/mL Vancomycin - 24 h) | MIC Assay VRE Strains: UCD-3 van0 ([3]; No vancomycin - 16 h) | MIC Assay Other Strains: B. cereus (Bacillus cereus) | MIC Assay Other Strains: P. aeruginosa (Pseudomonas aeruginosa) | MIC Assay VRE Strains: BM4147 van25 ([4]; 25 μg/mL Vancomycin - 24 h) | MIC Assay VRE Strains: BM4147 van0 ([4]; No vancomycin - 16 h) | MIC Assay Other Strains: S. pneumoniae (Streptococcus pneumoniae) | other results |
| --- | --- | --- | --- | --- | --- | --- | --- | --- | --- | --- | --- | --- | --- | --- | --- | --- |
| Cn1cc(NC(=O)c2cc(NC(=O)CN)cn2C)cc1C(=O)NCCCN(CCCNC(=O)c1cc(NC(=O)c2cc(NC(=O)CN)cn2C)cn1C)C(=O)OCc1ccccc1 [Compound 42] | 22.7 µM | 22.7 µM (≈ 19.7 µg/mL) | 45.5 µM | 22.7 µM (≈ 19.7 µg/mL) | >45.5 µM | >44.4 µM | >45.5 µM | 11.4 µM (≈ 9.89 µg/mL) | 45.5 µM | 45.5 µM (≈ 39.5 µg/mL) | 11.4 µM (≈ 9.89 µg/mL) | >45.5 µM | >45.5 µM | >45.5 µM | 1.4 µM |  |
| Cn1cc(NC(=O)c2cc(NC(=O)CN)cn2C)cc1C(=O)NCCCNCCCNC(=O)c1cc(NC(=O)c2cc(NC(=O)CN)cn2C)cn1C [Compound 113] |  |  |  |  |  |  |  |  |  |  |  |  |  |  |  | MIC ([1]; 25 μg/mL Vancomycin - 24 h, read-out: MIC Assay VRE Strains: CSUC-4 van25): 45.5 µM; MIC ([1]; No vancomycin - 16 h, read-out: MIC Assay VRE Strains: CSUC-4 van0): 22.7 µM (≈ 16.7 µg/mL); MIC ([2]; 25 μg/mL Vancomycin - 24 h, read-out: MIC Assay VRE Strains: UL-17 van25): 22.7 µM; MIC ([2]; No vancomycin - 16 h, read-out: MIC Assay VRE Strains: UL-17 van0): > 45.5 µM; MIC (Haemophilus influenzae; Haemophilus influenzae, read-out: MIC Assay Other Strains: H influenzae): > 45.5 µM; MIC (Candida albicans; Candida albicans): > 44.4 µM; MIC (Staphylococcus aureus; Staphylococcus aureus, read-out: MIC Assay Other Strains: S. aureus): > 45.5 µM; MIC (Moraxella catarrhalis; Moraxella catarrhalis, read-out: MIC Assay Other Strains: M. catarrhalis): 5.7 µM (≈ 4.18 µg/mL); MIC ([3]; 25 μg/mL Vancomycin - 24 h, read-out: MIC Assay VRE Strains: UCD-3 van25): 11.4 µM; MIC ([3]; No vancomycin - 16 h, read-out: MIC Assay VRE Strains: UCD-3 van0): 22.7 µM (≈ 16.7 µg/mL); MIC (Bacillus cereus; Bacillus cereus, read-out: MIC Assay Other Strains: B. cereus): 11.4 µM (≈ 8.37 µg/mL); MIC (Pseudomonas aeruginosa; Pseudomonas aeruginosa, read-out: MIC Assay Other Strains: P. aeruginosa): > 45.5 µM; MIC ([4]; 25 μg/mL Vancomycin - 24 h, read-out: MIC Assay VRE Strains: BM4147 van25): 22.7 µM; MIC ([4]; No vancomycin - 16 h, read-out: MIC Assay VRE Strains: BM4147 van0): 22.7 µM (≈ 16.7 µg/mL); MIC (Streptococcus pneumoniae; Streptococcus pneumoniae, read-out: MIC Assay Other Strains: S. pneumoniae): 11.4 µM |
| Cn1cc(NC(=O)CN)cc1C(=O)Nc1cc(C(=O)NC2CCC(CC3CCC(NC(=O)c4cc(NC(=O)c5cc(NC(=O)CN)cn5C)cn4C)CC3)CC2)n(C)c1 (centres unmarked) [Compound 21] | >45.5 µM | >45.5 µM | >45.5 µM | >45.5 µM | >45.5 µM | >44.4 µM | >45.5 µM | >45.5 µM | >45.5 µM | >45.5 µM | >45.5 µM | >45.5 µM | >45.5 µM | >45.5 µM | >45.5 µM |  |
| Cn1cc(NC(=O)c2cc(NC(=O)CN)cn2C)cc1C(=O)NCCCN(CCCNC(=O)c1cc(NC(=O)c2cc(NC(=O)CN)cn2C)cn1C)CCCNC(=O)c1cc(NC(=O)c2cc(NC(=O)CN)cn2C)cn1C [Compound 74, tris-{4-[(NH2CH2CONH)-1-methyl-1H-pyrrol-2-yl-carbonylamino]-1-methyl-1H-pyrrol-2-yl-carbonylaminopropyl}amine] | 22.7 µM | 22.7 µM (≈ 24.8 µg/mL) | 22.7 µM | 11.4 µM (≈ 12.5 µg/mL) | >45.5 µM | >44.4 µM | 22.7 µM (≈ 24.8 µg/mL) | 1.4 µM (≈ 1.53 µg/mL) | 11.4 µM | 5.7 µM (≈ 6.23 µg/mL) | 11.4 µM (≈ 12.5 µg/mL) | >45.5 µM | 22.7 µM | 22.7 µM (≈ 24.8 µg/mL) | 2.8 µM |  |
| Cn1cc(NC(=O)c2cc(NC(=O)c3cc(NC(=O)CN)cn3C)cn2C)cc1C(=O)NCCCN(CCCN)CCCNC(=O)c1cc(NC(=O)c2cc(NC(=O)c3cc(NC(=O)CN)cn3C)cn2C)cn1C [Compound 66, N,N-bis-{4-{4-[(NH2CH2CONH)-1-methyl-1H-pyrrol-2-yl-carbonylamino]-1-methyl-1H-pyrrol-2-ylcarbonylamino}-1-methyl-1H-pyrrol-2-yl-carbonylaminopropyl}-N-(3-aminoethylpropyl)amine] | >45.5 µM |  | >45.5 µM |  | >45.5 µM | >44.4 µM | >45.5 µM | >45.5 µM | >45.5 µM |  | >45.5 µM | >45.5 µM | >45.5 µM |  | >45.5 µM |  |
| Cn1cc(NC(=O)c2cc(NC(=O)CN)cn2C)cc1C(=O)NCCNC(=O)c1cc(NC(=O)c2cc(NC(=O)CN)cn2C)cn1C [Compound 10, bis-1,2-{4-[(NH2CH2CONH)-1-methyl-1H-pyrrol-2-yl-carbonylamino]-1-methyl-1H-pyrrol-2-ylcarbonylamino}ethane] | >45.5 µM | >45.5 µM | >45.5 µM | >45.5 µM | >45.5 µM | >44.4 µM | >45.5 µM | >45.5 µM | >45.5 µM | >45.5 µM | >45.5 µM | >45.5 µM | >45.5 µM | >45.5 µM | >45.5 µM |  |
